Assays:
X-αR/βC = biological target: T1, X-αR/βC (Bos taurus, UniProt Q00194, A200G/A344S/A378F/A555M/A612E/C169F/D157S/D193E/D538A/D588Q/D604M/DEL101-144/DEL91-95/E147F/E148K/E189Q/E196F/E230D/E231L/F201L/F214C/F374V/G160D/G591A/G605N/I156V/I181L/I182V/I235R/I530V/I609V/I611A/INS98[…]/K146T/K150R/K151W/K237N/K239I/K346C/K506R/K521Q/K551Q/K564R/K590Q/K598R/L195F/L199V/L210I/L351F/L583V/L593M/L606K/M175L/M213T/M592V/M602L/N161D/N165Y/N613A/P158Q/P173A/Q494R/Q599E/Q97T/R232A/R345F/R369K/R512K/S192D/S205C/S240R/S350C/S371E/S537T/S540G/T162I/T171A/T179I/T217L/T364M/T584A/V153G/V154F/V174S/V208I/V215I/V534A/V535L/Y194N/Y197L/Y541C); test: Macroscopic current dose–response in inside-out patches from Xenopus oocytes; assay type: cell-based, chimera of bovine CNG1, catfish CNG2 and rat CNG5
T1 sequence (Q00194 with tags, fused parts or gaps DEL91-95/Q97T/INS98[…]/DEL101-144/K146T/E147F/E148K/K150R/K151W/V153G/V154F/I156V/D157S/P158Q/G160D/N161D/T162I/N165Y/C169F/T171A/P173A/V174S/M175L/T179I/I181L/I182V/E189Q/S192D/D193E/Y194N/L195F/E196F/Y197L/L199V/A200G/F201L/S205C/V208I/L210I/M213T/F214C/V215I/T217L/E230D/E231L/R232A/I235R/K237N/K239I/S240R/A344S/R345F/K346C/S350C/L351F/T364M/R369K/S371E/F374V/A378F/Q494R/K506R/R512K/K521Q/I530V/V534A/V535L/S537T/D538A/S540G/Y541C/K551Q/A555M/K564R/L583V/T584A/D588Q/K590Q/G591A/M592V/L593M/K598R/Q599E/M602L/D604M/G605N/L606K/I609V/I611A/A612E/N613A): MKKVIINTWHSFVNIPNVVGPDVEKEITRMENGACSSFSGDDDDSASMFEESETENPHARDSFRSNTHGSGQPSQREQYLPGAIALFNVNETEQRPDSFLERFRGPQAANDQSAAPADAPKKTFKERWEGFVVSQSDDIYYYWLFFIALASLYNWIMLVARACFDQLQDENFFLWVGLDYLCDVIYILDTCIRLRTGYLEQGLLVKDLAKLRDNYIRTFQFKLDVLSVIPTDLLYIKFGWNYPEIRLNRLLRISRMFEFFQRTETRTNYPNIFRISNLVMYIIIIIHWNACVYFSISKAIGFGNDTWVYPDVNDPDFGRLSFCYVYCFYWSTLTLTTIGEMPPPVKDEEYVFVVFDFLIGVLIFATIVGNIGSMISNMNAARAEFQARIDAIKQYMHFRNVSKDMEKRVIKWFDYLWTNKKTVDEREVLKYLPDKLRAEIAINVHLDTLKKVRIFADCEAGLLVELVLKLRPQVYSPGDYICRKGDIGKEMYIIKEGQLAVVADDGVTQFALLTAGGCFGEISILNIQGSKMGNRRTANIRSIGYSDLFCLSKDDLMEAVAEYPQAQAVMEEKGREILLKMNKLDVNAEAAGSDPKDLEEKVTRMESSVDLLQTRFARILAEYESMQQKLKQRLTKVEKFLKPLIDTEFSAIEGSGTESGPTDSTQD

X-β homomeric channels = biological target: T2, X-β homomeric channels (Bos taurus, UniProt Q00194, A200G/A344S/A378F/A555S/A582V/A612E/C169F/D157S/D193E/D502E/D538A/D577E/D588Q/D604M/DEL101-144/DEL91-95/E147F/E148K/E189Q/E196F/E230D/E231L/F201L/F214C/F374V/F533Y/G160D/G591A/G605N/I156V/I181L/I182V/I235R/I504V/I530V/I566L/I609V/I611A/INS98[…]/K146T/K150R/K151W/K237N/K239I/K346C/K506R/K518R/K521Q/K554M/K590Q/K598R/L195F/L199V/L210I/L351F/L548I/L593M/L606K/M175L/M213T/M580R/M592V/M602L/N161D/N165Y/N613A/P158Q/P173A/Q599E/Q97T/R232A/R345F/R369K/S192D/S205C/S240R/S350C/S371E/S537G/S540L/S553N/T162I/T171A/T179I/T217L/T364M/T584S/V153G/V154F/V174S/V208I/V215I/V487E/V497T/V534A/Y194N/Y197L); test: as above; assay type: cell-based, chimera of bovine CNG1, catfish CNG2 and rat CNG5; conditions: for Hill coefficient h: −100 mV
T2 sequence (Q00194 with tags, fused parts or gaps DEL91-95/Q97T/INS98[…]/DEL101-144/K146T/E147F/E148K/K150R/K151W/V153G/V154F/I156V/D157S/P158Q/G160D/N161D/T162I/N165Y/C169F/T171A/P173A/V174S/M175L/T179I/I181L/I182V/E189Q/S192D/D193E/Y194N/L195F/E196F/Y197L/L199V/A200G/F201L/S205C/V208I/L210I/M213T/F214C/V215I/T217L/E230D/E231L/R232A/I235R/K237N/K239I/S240R/A344S/R345F/K346C/S350C/L351F/T364M/R369K/S371E/F374V/A378F/V487E/V497T/D502E/I504V/K506R/K518R/K521Q/I530V/F533Y/V534A/S537G/D538A/S540L/L548I/S553N/K554M/A555S/I566L/D577E/M580R/A582V/T584S/D588Q/K590Q/G591A/M592V/L593M/K598R/Q599E/M602L/D604M/G605N/L606K/I609V/I611A/A612E/N613A): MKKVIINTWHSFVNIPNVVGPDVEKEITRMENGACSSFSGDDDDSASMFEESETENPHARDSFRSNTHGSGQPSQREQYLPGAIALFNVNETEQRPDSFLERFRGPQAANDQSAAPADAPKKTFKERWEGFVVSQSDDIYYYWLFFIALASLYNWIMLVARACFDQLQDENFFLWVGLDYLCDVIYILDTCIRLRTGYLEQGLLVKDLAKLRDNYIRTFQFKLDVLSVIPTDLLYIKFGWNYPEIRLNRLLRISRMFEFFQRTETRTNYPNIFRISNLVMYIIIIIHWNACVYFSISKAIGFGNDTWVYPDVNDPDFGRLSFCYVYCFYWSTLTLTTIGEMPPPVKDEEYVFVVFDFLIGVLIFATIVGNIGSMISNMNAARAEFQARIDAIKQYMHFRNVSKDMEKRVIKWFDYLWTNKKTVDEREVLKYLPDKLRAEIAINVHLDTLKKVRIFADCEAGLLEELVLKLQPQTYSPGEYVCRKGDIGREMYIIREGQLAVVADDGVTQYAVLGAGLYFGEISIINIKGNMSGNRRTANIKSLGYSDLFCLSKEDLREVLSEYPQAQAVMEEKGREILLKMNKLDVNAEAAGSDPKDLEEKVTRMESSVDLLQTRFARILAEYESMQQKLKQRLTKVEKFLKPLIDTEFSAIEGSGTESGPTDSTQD

- Hill coefficient h (X-αR/βC; −100 mV, composite fit ± SEM, cGMP: excluding data >3 mM): 1.120 ± 0.044
- agonist character (X-β homomeric channels; macroscopic currents): full agonists
- Hill coefficient h (X-β homomeric channels; one patch (Fig. 1C), Hill fit ± SE): 1.94 ± 0.13
- Hill coefficient h (X-β homomeric channels; mean ± SD of individual patches): 2.07 ± 0.27 (9)
SMILES: Nc1nc2c(ncn2[C@@H]2O[C@@H]3COP(=O)([O-])O[C@H]3[C@H]2O)c(=O)[nH]1.[Na+] [cGMP]
- Desensitization (X-αR/βC): Yes
- agonist concentration above which desensitization occurs (X-αR/βC; biphasic dose–response curve): above 3 mM
- Desensitization (X-β homomeric channels; agonist up to 30 mM): no evidence for this desensitization and No
